Among the data in EP0903346A1, “SYDNONE IMINE DERIVATIVES” (Chugai Seiyaku Kabushiki Kaisha, priority 1995, dated 1997) are IC50 values, retold here.

Read-outs that look alike come from different tables or passages of the source.

The experiment deals with isolated rat aorta. The experiment can be described thus: Test with the use of isolated rat aorta (relaxation of potassium chloride contraction). The settings on record: read-out: Rat aorta IC50. The protocol:
The thoracic aorta was taken out from male Sprague Dawley rats weighing 450 to 600 g and cut into circular samples of 2 mm in width. […] The contraction reactions of the samples were isometrically recorded with FD pick-up. After 1 to 1.5 hours of equilibration, 30 mM potassium chloride was added to contract the tissue. […] As the test compounds, the invention compounds obtained in the above Examples were employed.

[1] abbreviates: relaxation of continuous contraction due to 30 mM potassium chloride, thoracic aorta of male Sprague Dawley rats.

Broadly, the IC50 is the concentration needed to halve the response being measured. For `COc1ccccc1N1CCN([n+]2cc([N-]C(=O)[C@H](C)CSC(=O)c3ccccc3)on2)CC1` [Example 11, N-((S)-3-(Benzoylthio)isobutyryl)-3-(4-(2-methoxyphenyl)piperazin-1-yl)sydnonimine], the IC50 under setting [1] stood at 160 nM.
On the same count and under the same terms, to `CC1CCCC(C)N1[n+]1cc([N-]C(=O)CSc2cc(C(C)(C)C)c(O)c(C(C)(C)C)c2)on1` (stereo not shown) [Example 13, N-((3,5-Di-t-butyl-4-hydroxyphenylthio)acetyl)-3-(2,6-dimethylpiperidin-1-yl)sydnonimine] belongs 550 nM; to `CC1CCCC(C)N1[n+]1cc([N-]C(=O)CSC(=O)c2ccccc2)on1` (stereo not shown) [Example 16, N-((Benzoylthio)acetyl)-3-(2,6-dimethylpiperidin-1-yl)sydnonimine], 56 nM.
Regarding `CC(=O)SC[C@@H](C)C(=O)[N-]c1c[n+](N2CCN(C(=O)CSc3cc(C(C)(C)C)c(O)c(C(C)(C)C)c3)CC2)no1` [Example 24-D], under setting [1], the half-inhibitory concentration (IC50) worked out at 470 nM.
Take `COc1cc(CC(=O)N2CCN([n+]3cc([N-]C(=O)[C@H](C)CSC(C)=O)on3)CC2)cc(OC)c1OC` [Example 25]: the IC50 under setting [1] amounted to 630 nM.
Take `CC(=O)SC[C@@H](C)C(=O)[N-]c1c[n+](N2CCN(C(=O)[C@@H]3CSC(=O)N3)CC2)no1` [Example 28, N-((S)-3-(Acetylthio)isobutyryl)-3-(4-((R)-2-oxo-4-thiazolidinecarbonyl)piperazin-1-yl)sydnonimine]: under setting [1], the IC50 was 710 nM.
As for `CC(=O)SC[C@@H](C)C(=O)[N-]c1c[n+](N2CCN(C(=O)[C@H](C)CSC(=O)c3ccccc3)CC2)no1` [Example 29, N-((S)-3-(Acetylthio)isobutyryl)-3-(4-((S)-3-(benzoylthio)isobutyryl)piperazin-1-yl)sydnonimine], the half-inhibitory concentration (IC50) under setting [1] was determined as 630 nM.
The same measure, in the same setting: to `CC(=O)SCC(=O)N1CCN([n+]2cc([N-]C(=O)CSC(=O)c3ccccc3)on2)CC1` [Example 30-D, 3-(4-(Acetylthio)acetyl)piperazin-1-yl)-N-((benzoylthio)acetylsydnonimine] belongs 120 nM; to `O=C(CSC(=O)c1ccccc1)[N-]c1c[n+](N2CCN(C(=O)CSC(=O)c3ccccc3)CC2)no1` [Example 31], 36 nM; to `COc1cc(CC(=O)N2CCN([n+]3cc([N-]C(=O)CSC(=O)c4ccccc4)on3)CC2)cc(OC)c1OC` [Example 32], 45 nM.
Still for that read-out and setting: then `CC(C)(C)c1cc(SCC(=O)N2CCN([n+]3cc([N-]C(=O)CSC(=O)c4ccccc4)on3)CC2)cc(C(C)(C)C)c1O` [Example 33, N-((Benzoylthio)acetyl)-3-(4-(3,5-di-t-butyl-4-hydroxyphenylthio)acetylpiperazin-1-yl)sydnonimine], with 180 nM; and `CC(=O)SCC(=O)[N-]c1c[n+](N2CCN(C(=O)CSC(C)=O)CC2)no1` [Example 38-C, N-((Acetylthio)acetyl)-3-(4-((acetylthio)acetyl)piperazin-1-yl)sydnonimine], with 230 nM.
`COc1cc(CC(=O)N2CCN([n+]3cc([N-]C(=O)CSC(C)=O)on3)CC2)cc(OC)c1OC` [Example 40, N-((Acetylthio)acetyl)-3-(4-((3,4,5-trimethoxyphenyl)acetyl)piperazin-1-yl)sydnonimine]: the half-maximal inhibitory concentration (IC50) stood at 280 nM.
For the compound `COc1cc(CCN2CCN([n+]3cc([N-]C(=O)[C@H](C)CSC(=O)c4ccccc4)on3)CC2)cc(OC)c1OC` [Example 45, N-((S)-3-(Benzoylthio)isobutyryl)-3-(4-(2-(3,4,5-trimethoxyphenyl)ethyl)piperazin-1-yl)sydnonimine], the IC50 under setting [1] is 780 nM.
Same read-out and setting: to `COc1ccc(CN2CCN([n+]3cc([N-]C(=O)CSc4cc(C(C)(C)C)c(O)c(C(C)(C)C)c4)on3)CC2)cc1OC` [Example 47, N-((3,5-Di-t-butyl-4-hydroxyphenylthio)acetyl)-3-(4-(3,4-dimethoxyphenylmethyl)piperazin-1-yl)sydnonimine] belongs 940 nM.
On the same count and under the same terms, to `COc1cc(CN2CCN([n+]3cc([N-]C(=O)CSC(C)=O)on3)CC2)cc(OC)c1OC` [Example 48, N-((Acetylthio)acetyl)-3-(4-(3,4,5-trimethoxyphenylmethyl)piperazin-1-yl)sydnonimine] belongs 110 nM; to `COc1cc(CN2CCN([n+]3cc([N-]C(=O)CSC(=O)c4ccccc4)on3)CC2)cc(OC)c1OC` [Example 49, N-((Benzoylthio)acetyl)-3-(4-(3,4,5-trimethoxyphenylmethyl)piperazin-1-yl)sydnonimine], 46 nM.
As to `COc1ccc(CN2CCN([n+]3cc([N-]C(=O)CSC(C)=O)on3)CC2)c(OC)c1OC` [Example 50, N-((Acetylthio)acetyl)-3-(4-(2,3,4-trimethoxyphenylmethyl)piperazin-1-yl)sydnonimine], the IC50 under setting [1] amounted to 140 nM.
As for `COc1ccc(CN2CCN([n+]3cc([N-]C(=O)CSC(=O)c4ccccc4)on3)CC2)c(OC)c1OC` [Example 51, N-((Benzoylthio)acetyl)-3-(4-(2,3,4-trimethoxyphenylmethyl)piperazin-1-yl)sydnonimine], the concentration for half-maximal inhibition (IC50) under setting [1] turned out to be 300 nM.
The same measure, in the same setting: then `C[C@H](CSC(=O)c1ccccc1)C(=O)[N-]c1c[n+](N2CCN(CCSC(=O)c3ccccc3)CC2)no1` [Example 52-B, N-((S)-3-(Benzoylthio)isobutyryl)-3-(4-(2-(benzoylthio)ethyl)piperazin-1-yl)sydnonimine], with 420 nM; and `COc1cc(CCN(C)[n+]2cc([N-]C(=O)[C@H](C)CSC(=O)c3ccccc3)on2)cc(OC)c1OC` [Example 64, N-((S)-3-(Benzoylthio)isobutyryl)-3-(N'-(2-(3,4,5-trimethoxyphenyl)ethyl)-N'-methylamino)sydnonimine], with 910 nM; and `CC(=O)SC[C@@H](C)C(=O)[N-]c1c[n+](N2CCOCC2)no1` [Example 67, N-((S)-3-(Acetylthio)isobutyryl)-3-morpholinosydnonimine], with 540 nM.
